The record followed here is ChEMBL document CHEMBL5380851, “"Magic Chloro": Profound Effects of the Chlorine Atom in Drug Discovery” (J Med Chem, 2023).

A short description of the series: Dissociation constant, pKa of the compound.
`Clc1ccncc1` displayed a pKa of 3.83.

The molecule `Clc1cccnc1` yielded a pKa of 2.81.

Take `Clc1ccccn1` [2-CHLOROPYRIDINE]: the pKa was found to be 0.49.

For orientation: pKa means the negative logarithm of the acid dissociation constant. A low value points to a stronger acid or weaker base.
